Reference: patent US20250313574A1, “SIALIC ACID DERIVATIVES AND METHODS OF USING SAME” (EISAI R&D MANAGEMENT CO., LTD., priority 2022, published 2025)

biological target: Recombinant human CD33 protein (Homo sapiens (Human), UniProt P20138); test: CD33 competitive binding assay for HTS drug screen (fluorescent multivalent sialic acid probe)
Procedure: This is a competitive binding assay that uses recombinant CD33 immobilized to a plate and a fluorescently-labeled multivalent sialic acid analog as a probe. Binding of drug to the site on CD33 to which sialic acid binds is detected by reduced binding of the fluorescent probe. Recombinant human CD33 protein (for example Acro Biosystems cat #CD3-H5257) was added at a concentration of 10 μg/ml in 20 mM acetate buffer (pH5.5) to a black plastic plate (Corning 4510) and allowed to incubate overnight at 4° C. The next day, the wells were washed 3 times with PBS containing 0.02% Tween-20. This was followed by a 30-minute incubation with PBS containing 0.2% Tween-20 and 0.5% BSA to block non-specific binding to the well. This buffer is removed and replaced with 10 μl of the same buffer, which is also used as the assay buffer. The fluorescent multivalent sialic acid probe was prepared as a 4× concentration as follows. A biotinylated sialic acid analog A-375 was mixed with biotin-4-Fluorescein isothiocyanate (biotin-4-FITC) at a 3:1 molar ratio with final concentrations (4× stock) of 60 μM A-375 and 20 μM biotin-4-FITC. After these were mixed, 20 μM of neutravidin was added, which should form complexes consisting of neutravidin, fluorescein and sialic acid with an average complex consisting of 1 neutravidin, 1 FITC and 3 sialic acid analogs. The multimerization of the sialic acid analog is critical to the assay and improves the affinity of the sialic acid analog several orders of magnitude. A test compound, for example A-001, is added at 5 μl to the 10 μl assay buffer already in the well. After a brief incubation, 5 μl of the 4× stock solution of sialic acid complexes was added. The final concentration of the complexes was therefore 5 μM neutravidin, 15 μM A-375 and 5 μM FITC. The plate was incubated at room temperature for 30 mins and then washed with PBS containing 0.2% Tween-20. Binding of the sialic acid complex is very stable, with an off-rate of several days. Bound complex was then detected using a standard plate reader to quantify FITC fluorescence.

Recombinant human CD33 protein, sequence (P20138 18-259): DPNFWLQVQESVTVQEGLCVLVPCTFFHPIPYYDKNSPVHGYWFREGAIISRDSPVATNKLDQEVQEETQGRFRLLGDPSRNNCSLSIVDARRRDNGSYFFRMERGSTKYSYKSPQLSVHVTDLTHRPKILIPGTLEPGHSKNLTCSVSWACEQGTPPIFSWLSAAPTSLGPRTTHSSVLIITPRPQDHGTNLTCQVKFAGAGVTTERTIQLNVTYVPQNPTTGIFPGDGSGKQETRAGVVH

| SMILES | EC50 |
| --- | --- |
| CC(=O)N[C@H]1[C@H]([C@H](O)[C@H](O)CNC(=O)c2cc(C)c(O)c(C)c2)O[C@@](CCN2CCOC[C@@]23CCN(C(=O)CC(C)(C)C)C3)(C(=O)O)C[C@@H]1O [A-072] | 230 nM |
| Cc1cc(C(=O)NCC(O)C[C@@H]2O[C@@](CCN3CCOC[C@@]34CCN(C(=O)OC(C)(C)C)C4)(C(=O)O)CCC2C)cc(C)c1O (single isomer, unassigned) [A-215] | 60400 nM |
| Cc1cc(C(=O)NC[C@@H](O)C[C@H]2CC[C@H](C)[C@](CCN3CCOC[C@@]34CCN(C(=O)OC(C)(C)C)C4)(C(=O)O)O2)cc2cc[nH]c12 [A-216] | 12200 nM |
| CC(=O)N[C@H]1[C@H]([C@H](O)[C@H](O)CNC(=O)c2cc(C)c3[nH]ncc3c2)O[C@@](CCN2CCOC[C@@]23CCN(C(=O)OC(C)(C)C)C3)(C(=O)O)C[C@@H]1O [A-130] | 9 nM |
| COC[C@@]1(N(C)CC[C@]2(C(=O)O)C[C@H](O)[C@@H](NC(C)=O)[C@H]([C@H](O)[C@H](O)CNC(=O)c3cc(C)c(O)c(C)c3)O2)CCN(C(=O)OC(C)(C)C)C1 [A-031] | 70 nM |
| CC(=O)N[C@H]1[C@H]([C@H](O)[C@H](O)CNC(=O)c2cc(C)c(O)c(C)c2)O[C@@](CCN2CCNC[C@@]23CCN(C(=O)NC(C)(C)C)C3)(C(=O)O)C[C@@H]1O [A-108] | 26 nM |
| CC(=O)N[C@H]1[C@H]([C@H](O)[C@H](O)CNC(=O)c2cc(C)c(O)c(C)c2)O[C@@](CCN2CCOC[C@@]23CCN(C(=O)C2CCCCC2)C3)(C(=O)O)C[C@@H]1O [A-067] | 63 nM |
| CC(=O)N[C@H]1[C@H]([C@H](O)[C@H](O)CNC(=O)c2cc(C)c(O)c(C)c2)O[C@@](C/C=C/C2(O)CCN(C(=O)OC(C)(C)C)C2)(C(=O)O)C[C@@H]1O (some centres unmarked) [A-197] | 181 nM |
| CC(=O)N[C@H]1[C@H]([C@H](O)[C@H](O)CNC(=O)c2cc(C)c(O)c(C)c2)O[C@@](CCN2CCOC[C@@]23CCN(C(=O)c2ccc4[nH]c(C(C)O)nc4c2)C3)(C(=O)O)C[C@@H]1O (some centres unmarked) [A-095] | 1690 nM |
| CC(=O)N[C@H]1[C@H]([C@H](O)[C@H](O)CNC(=O)c2cc(C)c(O)c(C)c2)O[C@@](CCN2CCOCC23CCN(C(=O)OC(C)(C)C)CC3)(C(=O)O)C[C@@H]1O [A-007] | 811 nM |
| CC(=O)N[C@H]1[C@H]([C@H](O)[C@H](O)CNC(=O)c2cc(C)c(O)c(C)c2)O[C@@](CCN2CCOC[C@@]23CCN(Cc2cccc(C)c2)C3)(C(=O)O)C[C@@H]1O [A-104] | > 10000 nM |
| CC(=O)N[C@H]1[C@H]([C@H](O)[C@H](O)CNC(=O)c2cc(C)c(O)c(C)c2)O[C@@](CCN2CCOC[C@@]23CCN(C(=O)CC2CCOCC2)C3)(C(=O)O)C[C@@H]1O [A-073] | 206 nM |
| CC(=O)N[C@H]1[C@H]([C@H](O)[C@H](O)CNC(=O)c2cc(C)c(O)c(C)c2)O[C@@](CCN2CCOC[C@@]23CCN(C(=O)C(C)C2CCCCC2)C3)(C(=O)O)C[C@@H]1O (some centres unmarked) [A-076] | 226 nM |
| CC(=O)N[C@H]1[C@H]([C@H](O)[C@H](O)CNC(=O)c2cc(C)c(O)c(C)c2)O[C@@](CCN2CCOC[C@@]23CCN(C(=O)C(C)(C)Oc2ccccc2)C3)(C(=O)O)C[C@@H]1O [A-081] | 1950 nM |
